Measured values from paper PMC6458159, “Mechanisms of redundancy and specificity of the Aspergillus fumigatus Crh transglycosylases” (Nature Communications, 2019).

Target: T1, AfCrh5 (Aspergillus fumigatus, UniProt Q8J0P4)
T1 construct: gene crh5; GST cleaved off by PreScission, N-terminal His6 kept; E. coli BL21(DE3) pLysS
T1 sequence (Q8J0P4 22-275): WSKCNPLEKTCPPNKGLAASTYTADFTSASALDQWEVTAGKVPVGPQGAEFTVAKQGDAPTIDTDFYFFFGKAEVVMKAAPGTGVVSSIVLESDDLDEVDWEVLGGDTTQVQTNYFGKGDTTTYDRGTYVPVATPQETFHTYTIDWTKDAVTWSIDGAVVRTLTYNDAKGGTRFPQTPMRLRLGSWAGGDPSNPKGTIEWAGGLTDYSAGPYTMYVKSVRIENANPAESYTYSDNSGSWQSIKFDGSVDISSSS
Assay: fluorescent transglycosylation filter-paper assay
Assay type: biochemical
Details: acceptor; donor carboxymethyl-chitin; 50 mM citrate pH 4.9, 37 °C; labelled compound
Excerpt: fluorescent transglycosylation filter-paper assay on AfCrh5

| Substance | Km |
| --- | --- |
| SR-labelled chitopentaose [CH5-SR] | 3.5 ± 0.4 µM |
| SR-labelled laminaripentaose [L5-SR] | 12 ± 3 µM |
